{"source": "patent US20130143929A1", "about": "“FUNGICIDAL IMIDAZOLES” (EI DU PONT DE NEMOURS AND COMPANY, priority 2010, published 2013)", "type_in_all_cases": "in vivo", "key": {"[1]": {"test_system": "Puccinia recondite f. sp. tritici (the causal agent of wheat leaf rust)", "assay": "Test A: wheat leaf rust, preventive spray on wheat seedlings, visual disease rating", "conditions": "wheat leaf rust, preventive spray on wheat seedlings", "in_short": "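Wheat seedlings were sprayed to run-off with compound suspended in acetone/water containing 250 ppm Trem 014 (200 ppm ≈ 800 g/ha; some at 40 ppm). Puccinia recondite spores were inoculated the next day. Plants were held 24 h saturated at 20° C, then 7 days at 20° C, and disease control was rated visually on a 0–100 scale against controls.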"}, "[2]": {"test_system": "Septoria tritici (the causal agent of wheat leaf blotch)", "assay": "Test B: wheat leaf blotch, preventive spray on wheat seedlings, visual disease rating", "conditions": "wheat leaf blotch, preventive spray on wheat seedlings", "in_short": "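Wheat seedlings sprayed to run-off with compound suspension (acetone/water with 250 ppm Trem 014; 200 ppm ≈ 800 g/ha, some at 40 ppm), inoculated next day with Septoria tritici spores. 48 h saturated humidity at 24 °C, then 19 days at 20 °C; visual rating, 100 = full control.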"}, "[3]": {"test_system": "Botrytis cinerea (the causal agent of tomato Botrytis)", "assay": "Test C: tomato Botrytis, preventive spray on tomato seedlings, visual disease rating", "conditions": "tomato Botrytis, preventive spray on tomato seedlings", "in_short": "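Test suspension (acetone/water with 250 ppm Trem 014; 200 ppm equivalent to 800 g/ha) sprayed to run-off on tomato seedlings; B. cinerea spores inoculated next day. After 48 h saturated humidity at 20° C then 3 days at 24° C, disease rated visually as % control relative to untreated controls (0–100).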"}, "[4]": {"test_system": "Blumeria graminis f. sp. tritici (also known as Erysiphe graminis f. sp. tritici, the causal agent of wheat powdery mildew)", "assay": "Test D: wheat powdery mildew, preventive spray on wheat seedlings, visual disease rating", "conditions": "wheat powdery mildew, preventive spray on wheat seedlings", "in_short": "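Compound suspended in acetone/water (50/50) with 250 ppm Trem 014 and sprayed to run-off on wheat seedlings (200 ppm ≈ 800 g/ha), then inoculated next day with spore dust. Disease rated visually after 8 days at 20 °C as % control relative to untreated plants (0-100).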"}, "[5]": {"conditions": "asterisk: 40 ppm test suspension"}, "[6]": {"conditions": "no asterisk (standard test suspension concentration, not 40 ppm)"}}, "note": "Marks after values point to notes of the source that are not given here."}
{"smiles": "COc1ccc(C(O)c2c(Br)ncn2-c2ccc(F)cc2Cl)c(Cl)c1", "note": "(centres unmarked) [compound 354]", "values": [{"measurement": "Test A rating (100 = 100% disease control, 0 = no disease control relative to the controls)", "setting": "[1]; [5]", "result": "94* %"}, {"measurement": "Test B rating (100 = 100% disease control, 0 = no disease control relative to the controls)", "setting": "[2]; [5]", "result": "18* %"}, {"measurement": "Test C rating (100 = 100% disease control, 0 = no disease control relative to the controls)", "setting": "[3]; [5]", "result": "0* %"}, {"measurement": "Test D rating (100 = 100% disease control, 0 = no disease control relative to the controls)", "setting": "[4]; [5]", "result": "0* %"}]}
{"smiles": "Cc1cc(F)ccc1C(O)c1c(Br)nc(C)n1-c1ccc(F)cc1Br", "note": "(centres unmarked) [compound 173]", "values": [{"measurement": "Test A rating (100 = 100% disease control, 0 = no disease control relative to the controls)", "setting": "[1]; [6]", "result": 99, "unit": "%"}, {"measurement": "Test B rating (100 = 100% disease control, 0 = no disease control relative to the controls)", "setting": "[2]; [6]", "result": 100, "unit": "%"}, {"measurement": "Test C rating (100 = 100% disease control, 0 = no disease control relative to the controls)", "setting": "[3]; [6]", "result": 16, "unit": "%"}, {"measurement": "Test D rating (100 = 100% disease control, 0 = no disease control relative to the controls)", "setting": "[4]; [6]", "result": 48, "unit": "%"}]}
{"smiles": "COc1ccc(C(O)c2c(Cl)ncn2-c2ccc(F)cc2Cl)c(Cl)c1", "note": "(centres unmarked) [compound 356]", "values": [{"measurement": "Test A rating (100 = 100% disease control, 0 = no disease control relative to the controls)", "setting": "[1]; [5]", "result": "95* %"}, {"measurement": "Test B rating (100 = 100% disease control, 0 = no disease control relative to the controls)", "setting": "[2]; [5]", "result": "19* %"}, {"measurement": "Test C rating (100 = 100% disease control, 0 = no disease control relative to the controls)", "setting": "[3]; [5]", "result": "0* %"}, {"measurement": "Test D rating (100 = 100% disease control, 0 = no disease control relative to the controls)", "setting": "[4]; [5]", "result": "0* %"}]}
{"smiles": "Cc1nc(Br)c(C(O)c2ccc(Cl)cc2F)n1-c1c(F)cccc1F", "note": "(centres unmarked) [compound 179]", "values": [{"measurement": "Test A rating (100 = 100% disease control, 0 = no disease control relative to the controls)", "setting": "[1]; [5]", "result": "68* %"}, {"measurement": "Test B rating (100 = 100% disease control, 0 = no disease control relative to the controls)", "setting": "[2]; [5]", "result": "100* %"}, {"measurement": "Test C rating (100 = 100% disease control, 0 = no disease control relative to the controls)", "setting": "[3]; [5]", "result": "78* %"}, {"measurement": "Test D rating (100 = 100% disease control, 0 = no disease control relative to the controls)", "setting": "[4]; [5]", "result": "43* %"}]}
{"smiles": "OC(c1ccc(F)cc1F)c1c(Br)nc(Br)n1-c1c(F)cc(Cl)cc1F", "note": "(centres unmarked) [compound 123]", "values": [{"measurement": "Test A rating (100 = 100% disease control, 0 = no disease control relative to the controls)", "setting": "[1]; [5]", "result": "98* %"}, {"measurement": "Test B rating (100 = 100% disease control, 0 = no disease control relative to the controls)", "setting": "[2]; [5]", "result": "100* %"}, {"measurement": "Test C rating (100 = 100% disease control, 0 = no disease control relative to the controls)", "setting": "[3]; [5]", "result": "95* %"}, {"measurement": "Test D rating (100 = 100% disease control, 0 = no disease control relative to the controls)", "setting": "[4]; [5]", "result": "0* %"}]}
{"smiles": "Cc1nc(Cl)n(-c2c(F)cccc2F)c1C(O)c1ccc(F)cc1F", "note": "(racemic) [compound 26]", "values": [{"measurement": "Test A rating (100 = 100% disease control, 0 = no disease control relative to the controls)", "setting": "[1]; [5]", "result": "100* %"}, {"measurement": "Test B rating (100 = 100% disease control, 0 = no disease control relative to the controls)", "setting": "[2]; [5]", "result": "100* %"}, {"measurement": "Test C rating (100 = 100% disease control, 0 = no disease control relative to the controls)", "setting": "[3]; [5]", "result": "100* %"}, {"measurement": "Test D rating (100 = 100% disease control, 0 = no disease control relative to the controls)", "setting": "[4]; [5]", "result": "99* %"}]}
{"smiles": "Cc1nc(Br)c(C(O)c2ccc(Cl)cc2Cl)n1-c1ccc(F)cc1F", "note": "(racemic) [compound 259]", "values": [{"measurement": "Test A rating (100 = 100% disease control, 0 = no disease control relative to the controls)", "setting": "[1]; [6]", "result": 99, "unit": "%"}, {"measurement": "Test B rating (100 = 100% disease control, 0 = no disease control relative to the controls)", "setting": "[2]; [6]", "result": 100, "unit": "%"}, {"measurement": "Test C rating (100 = 100% disease control, 0 = no disease control relative to the controls)", "setting": "[3]; [6]", "result": 0, "unit": "%"}, {"measurement": "Test D rating (100 = 100% disease control, 0 = no disease control relative to the controls)", "setting": "[4]; [6]", "result": 0, "unit": "%"}]}
{"smiles": "Cc1nc(Cl)c(C(O)c2ccc(F)cc2Cl)n1-c1c(F)cc(C#N)cc1F", "note": "(centres unmarked) [compound 198]", "values": [{"measurement": "Test A rating (100 = 100% disease control, 0 = no disease control relative to the controls)", "setting": "[1]; [5]", "result": "97* %"}, {"measurement": "Test B rating (100 = 100% disease control, 0 = no disease control relative to the controls)", "setting": "[2]; [5]", "result": "100* %"}, {"measurement": "Test C rating (100 = 100% disease control, 0 = no disease control relative to the controls)", "setting": "[3]; [5]", "result": "0* %"}, {"measurement": "Test D rating (100 = 100% disease control, 0 = no disease control relative to the controls)", "setting": "[4]; [5]", "result": "0* %"}]}
{"smiles": "Cc1nc(Cl)c(C(O)c2ccc(F)cc2Cl)n1-c1c(F)cccc1F", "note": "(centres unmarked) [compound 98]", "values": [{"measurement": "Test A rating (100 = 100% disease control, 0 = no disease control relative to the controls)", "setting": "[1]; [5]", "result": "100* %"}, {"measurement": "Test B rating (100 = 100% disease control, 0 = no disease control relative to the controls)", "setting": "[2]; [5]", "result": "100* %"}, {"measurement": "Test C rating (100 = 100% disease control, 0 = no disease control relative to the controls)", "setting": "[3]; [5]", "result": "100* %"}, {"measurement": "Test D rating (100 = 100% disease control, 0 = no disease control relative to the controls)", "setting": "[4]; [5]", "result": "99* %"}]}
{"smiles": "COc1ccc(C(O)c2c(Cl)nc(Cl)n2-c2ccc(F)cc2F)c(Cl)c1", "note": "(racemic) [compound 236]", "values": [{"measurement": "Test A rating (100 = 100% disease control, 0 = no disease control relative to the controls)", "setting": "[1]; [5]", "result": "100* %"}, {"measurement": "Test B rating (100 = 100% disease control, 0 = no disease control relative to the controls)", "setting": "[2]; [5]", "result": "100* %"}, {"measurement": "Test C rating (100 = 100% disease control, 0 = no disease control relative to the controls)", "setting": "[3]; [5]", "result": "100* %"}, {"measurement": "Test D rating (100 = 100% disease control, 0 = no disease control relative to the controls)", "setting": "[4]; [5]", "result": "99* %"}]}
{"smiles": "Cc1nc(Cl)c(C(O)c2ccc(F)cc2Cl)n1-c1c(F)cc(Cl)cc1F", "note": "(centres unmarked) [compound 117]", "values": [{"measurement": "Test A rating (100 = 100% disease control, 0 = no disease control relative to the controls)", "setting": "[1]; [5]", "result": "99* %"}, {"measurement": "Test B rating (100 = 100% disease control, 0 = no disease control relative to the controls)", "setting": "[2]; [5]", "result": "100* %"}, {"measurement": "Test C rating (100 = 100% disease control, 0 = no disease control relative to the controls)", "setting": "[3]; [5]", "result": "0* %"}, {"measurement": "Test D rating (100 = 100% disease control, 0 = no disease control relative to the controls)", "setting": "[4]; [5]", "result": "0* %"}]}
